Data: patent publication EP0328389A2, “Compostions for treating intracranial tumors” (MATRIX PHARMACEUTICAL INC., priority 1988, dated 1989)

Tests used:
C3H mice = experiment: Acute drug toxicity: deaths by day 7 after intracranial drug injection; format: in vivo; conditions: 0.2 mg/kg vinblastine i.c., 10 µl, right frontal lobe, 5 days post tumor implantation; deaths by day 7 following drug injection; epinephrine 0.1 mg/kg; matrix 1:1 bovine collagen 36 mg/ml
Protocol: (§1) The use of vinblastine (VBL) and vincristine (VC) alone and in combination with a protein carrier on the growth of experimental murine tumors grown intracranially was investigated. Halothane-anesthesized C3H mice 12-16 weeks in age were injected intracranially (i.c.) into the right frontal lobe with 10 µl total volume of Hank's balanced salt solution containing 5 X 10⁴ KHT fibrosarcoma cells through a burr hole made in the exposed cranium with a compressed air-driven drill. Following injection, the cranium was sealed with bone wax, and the overlying skin was sutured.
(§2) The test solution with and without matrix and the saline control were delivered intracranially (i.c.) in an injection volume of 10 µl through the same burr hole used for tumor cell inoculation. All mice were observed daily.
(§3) The acute drug toxicity level was determined by the percentage of animal survival on day 7 following drug injection. A comparison of the acute toxicity (deaths) of mice treated i.c. with matrix-associated VBL to aqueous VBL (10 µl) injection volume to the right frontal lobe is shown in Table 1 below. […]

[1] = as above; format: in vivo, mice; conditions: mouse, in vivo, 0.2 mg/kg; read-out: % of Mice That Died
Protocol: as §1, §2, §3

Question: Which “Number of Mice That Died” value (C3H mice) does the source give for `CC[C@]1(O)C[C@@H]2CN(CCc3c([nH]c4ccccc34)[C@@](C(=O)OC)(c3cc4c(cc3OC)N(C)[C@H]3[C@@](O)(C(=O)OC)[C@H](OC(C)=O)[C@]5(CC)C=CCN6CC[C@]43[C@@H]65)C2)C1` [Vinblastine, vinblastine] here?
Answer: 7

Question: What about the mortality at 168 h [1] of the same compound?
Answer: 26%
